Experimental data taken from patent US20180360072A1 (priority 2017, published 2018).
Where two headings read alike, the source gives them in different places.

What was measured:
[1] = tested on: E. maxima and C. perfringens; type: in vivo, broiler chicks
[2] = tested on: E. maxima and C. perfringens; type: in vivo, broiler chicks; remark: listed apart in the source
[3] = tested on: C. perfringens; experiment: microbe, parasite or virus in culture; type: cell-based, Clostridium perfringens
[4] = tested on: C. jejuni; experiment: C. jejuni in vitro growth inhibition in BHI broth (OD600); type: cell-based, Campylobacter jejuni; conditions: 1 mM, 48 hours in BHI broth; for C. jejuni growth, OD600: microaerobic, without bile acid 0.153
Experimental: To evaluate bile acids on C. jejuni growth, the bacterium was inoculated in BHI broth. The medium was also added final concentration of 0, 0.2, 0.5, and 1 mM DCA, and 1 mM TCA and CA. After 48-hour culture under microaerobic condition, the bacterium growth was measured at OD600.

[5] = Separate growth experiment, 26 days: body weight gain and ileal fat and nitrogen levels; type: in vivo, broiler chicks; conditions: 1.5 g/kg feed DCA diet for 26 days vs basal diet
Experimental: In a separate experiment, birds were fed diet supplementing with DCA at 1.5 g/kg feed. After 26 days the birds were weighed and sacrificed and ileal content were collected. The dry matter (DM), crude fat, and nitrogen levels in the ileal content was analyzed at the Central Analytical Lab at Department of Poultry Science at University of Arkansas at Fayetteville, Ark.

[6] = Broiler growth performance (body weight gain, feed conversion ratio) on DCA diet; type: in vivo, broiler chicks
[7] = tested on: C. jejuni strain 81-176; experiment: C. jejuni 81-176 cecal colonization in broiler chicks fed DCA diet; type: in vivo; conditions: 1.5 g/kg DCA diet, 10^9 CFU/chick C. jejuni 81-176 at 14 days of age
[8] = tested on: C. perfringens; type: in vivo, broiler chicks; conditions: DCA birds vs NE control birds; 16S rDNA real time PCR
[9] = tested on: Ptgs2 and Atp6vg1 mRNA; experiment: Host response gene mRNA accumulation in ileal tissue (real time PCR); type: in vivo; conditions: DCA diet; chicken ileal tissue; normalized to Gapdh
Experimental: Total RNA from chicken intestinal tissue was extracted using TRIzol (Invitrogen, Carlsbad, Calif.). Briefly, after bead beater disruption in TRIzol and chloroform and centrifugation, supernatant was precipitated with isopropanol. The pelleted RNA was washed once with 75% ethanol. The final RNA was dissolved in DNase/RNase free water and stored in −80° C. freezer. Complementary DNA was prepared using M-MLV (NEB).
Messenger RNA levels of proinflammatory genes were determined using SYBR Green PCR Master Mix (Bio-Rad, Hercules, Calif.) on an Bio-Rad 384-well Real-Time PCR System and normalized to Gapdh. The polymerase chain reactions were performed on 384-well real time PCR machine (Bio-Rad, Hercules, Calif.) according to the manufacturer's recommendation. […]

[10] = tested on: Infγ, Tnfα and Mmp9 mRNA; parameters: species or system broiler chicks; conditions: in vivo
[11] = tested on: C. perfringens 16S, Cpb and Virx mRNA; parameters: species or system broiler chicks; conditions: in vivo

## C[C@H](CCC(=O)O)[C@H]1CC[C@H]2[C@@H]3[C@H](O)C[C@@H]4C[C@H](O)CC[C@]4(C)[C@H]3C[C@H](O)[C@]12C [CA, cholic acid]
[1]; in vivo
  NE-induced intestinal inflammation and histopathology score: reduces bird NE intestinal inflammation
[2]; in vivo
  productivity / body weight gain loss at NE phase: attenuated body weight gain loss
  productivity / body weight gain loss at coccidiosis phase: failed
[3]; Clostridium perfringens, 1 mM, read-out: inhibition of C. perfringens growth
  inhibition at 1000 µM: 30%
[4]
  effect on C. jejuni growth: failed to inhibit C. jejuni growth
  C. jejuni growth, OD600: 0.19

## C[C@H](CCC(=O)O)[C@H]1CC[C@H]2[C@@H]3CC[C@@H]4C[C@H](O)CC[C@]4(C)[C@H]3C[C@H](O)[C@]12C [DCA, deoxycholic acid]
[1]; 1.5 g/kg diet, upper ileum, H&E, vs NE control birds
  NE-induced intestinal inflammation and histopathology score: significantly attenuated
[2]; 1.5 g/kg diet, d 18-23, compared to Em and NE control birds
  productivity / body weight gain loss at coccidiosis phase: prevented productivity loss
[2]; 1.5 g/kg diet, d 23-26, compared to NE control birds
  productivity / body weight gain loss at NE phase: prevented productivity loss
[2]; 1.5 g/kg diet, during 1-14 and 14-18 days of age, compared to birds fed other diets
  growth performance on body weight gain and feed efficiency before infection: promoted bird growth performance on body weight gain (FIG. 9A) and feed efficiency
[5]
  growth performance on body weight gain: promoted bird growth performance on body weight gain
[3]; 0.4 mM, TSB, overnight, anaerobic, OD600
  inhibition of C. perfringens growth: 87%
[6]
  accumulative feed conversion ratio improvement compared to control diet: 16.6%
[6]; at 28 days of age
  body weight gain increase compared to control diet: 11.9%
[6]; at 28 days of age, control diet 2.86
  body weight gain: 3.20 lb
[6]; control diet 1.81, lower value means better feed efficiency
  accumulative feed conversion ratio: 1.51
[7]; 2 days PI
  C. jejuni colonization level in ceca: 0 CFU/g
[7]; 7 days PI
  C. jejuni colonization level in ceca: 9.0×10^2 CFU/g
[7]; 14 days PI
  C. jejuni colonization level in ceca: 0 CFU/g
[4]
  effect on C. jejuni growth: slightly enhanced but not inhibit C. jejuni growth
  C. jejuni growth, OD600: 0.213
[8]
  ileal luminal C. perfringens load: not significantly different from NE control birds
[9]
  Atp6vg1 mRNA accumulation change compared to control diet: +40%
  Ptgs2 mRNA accumulation change compared to control diet: +92%
[10]
  attenuation of NE-induced Infγ mRNA accumulation: 51%
  attenuation of NE-induced Mmp9 mRNA accumulation: 66%
  attenuation of NE-induced Tnfα mRNA accumulation: 82%
[11]
  block of C. perfringens 16S mRNA accumulation: 97%
  block of C. perfringens Cpb mRNA accumulation: 61%
  block of C. perfringens Virx mRNA accumulation: 61%

## C[C@H](CCC(=O)NCCS(=O)(=O)O)[C@H]1CC[C@H]2[C@@H]3[C@H](O)C[C@@H]4C[C@H](O)CC[C@]4(C)[C@H]3C[C@H](O)[C@]12C [TCA, taurocholic acid, reference compound]
[3]
  inhibition of C. perfringens growth: failed to prevent its growth
[4]
  effect on C. jejuni growth: failed to inhibit C. jejuni growth
  C. jejuni growth, OD600: 0.197
